# How the values were obtained:
# [1] = biological target: T1, factor Xa in the presence of AT (Homo sapiens, UniProt P01008); assay: Determination of anti-factor Xa activity (IC50), Stachrom HP kit; type: biochemical; details: factor Xa inhibition in the presence of AT
# T1 construct: purchased Diagnostica Stago Stachrom HP kit
# Procedure: In the description of exemplified compounds, “IC50” represents the anti-factor Xa activity.
# Determination of Anti-Factor Xa Activity of Compounds (IC50)
# The compounds were compared as to their ability of inhibiting factor Xa in the presence of AT under standard conditions. For each compound a curve was plotted representing the inhibition % vs. concentration. The concentration inhibiting 50% of the factor Xa activity (IC50) was determined. A commercially available system was used for this purpose: compoundStachrom HP kit (Diagnostica Stago). This assay was carried out on a STA Compact (Diagnostica Stago).
# [2] = Pharmacokinetic study after intravenous administration (half-life of elimination); type: in vivo, female Wistar Han rats; details: plasma concentration by anti-factor Xa bioassay
# Procedure: Quantification of Compounds in Plasma
# Rat plasmatic concentration of compounds (μg compound/mL plasma) was determined using a bioassay based on their anti-factor Xa activity (Stachrom HP kit, Diagnostica Stago as described above). This assay was carried out on a STA Compact (Diagnostica Stago). A specific calibration curve was preformed with each compound to be quantified in rat plasma.
# Pharmacokinetic Study after Intravenous Administration (Half-Life of Elimination, T½)
# The pharmacokinetics of the compounds of the present invention were investigated in female Wistar Han rats after intravenous administration.
# Blood samples were taken at various time points and blood (9 volumes) was mixed with sodium citrate (1 volume) and cooled immediately on ice. The sample was subjected to a centrifugation at 3000×g for 10 minutes at low temperature (the plasma is typically stable for 24 h at temperature below 8° C.) and stored frozen at −20° C. Concentration of compound (per mL of plasma) was determined by their anti-factor Xa activity using factor Xa activity as described above.
# For each compound, the half-life of elimination was calculated from the concentration versus time curve thus obtained.
# [3] = cited from earlier work
# T1 sequence (P01008 33-464): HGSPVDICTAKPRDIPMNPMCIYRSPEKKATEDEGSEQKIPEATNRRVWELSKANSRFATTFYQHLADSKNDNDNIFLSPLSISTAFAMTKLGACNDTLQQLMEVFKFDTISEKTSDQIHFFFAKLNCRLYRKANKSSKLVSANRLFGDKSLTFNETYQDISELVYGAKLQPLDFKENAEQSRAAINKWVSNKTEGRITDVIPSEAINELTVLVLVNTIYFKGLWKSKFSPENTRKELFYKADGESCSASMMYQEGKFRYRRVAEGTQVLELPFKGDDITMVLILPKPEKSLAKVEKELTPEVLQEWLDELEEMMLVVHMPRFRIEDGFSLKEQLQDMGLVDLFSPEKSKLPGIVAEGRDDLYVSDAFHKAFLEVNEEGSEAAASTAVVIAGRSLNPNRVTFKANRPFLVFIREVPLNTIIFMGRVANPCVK
Compound,IC50 [1] [nM],"T1/2 (Rat), half-life of elimination [2] [h]",half-life in human [3] [h],"half-life ([2]; female, Wistar Han, rat, read-out: T1/2 (Rat), half-life of elimination (converted)) [h]"
CCCCCCOC1C(COS(=O)(=O)O)OC(OC2C(OC)C(OC)C(OC3C(COS(=O)(=O)O)OC(OC4C(OC)C5OCC4(C(=O)O)OC5OC4C(COS(=O)(=O)O)OC(OC)C(OS(=O)(=O)O)C4OC)C(OS(=O)(=O)O)C3OS(=O)(=O)O)OC2(CC)C(=O)O)C(N)C1OCCCCCC (centres unmarked) [Compound PA02],108,4.8 ± 0.5,,
CO[C@H]1O[C@H](COS(=O)(=O)O)[C@@H](O[C@@H]2O[C@@H](C(=O)O)[C@@H](O[C@H]3O[C@H](COS(=O)(=O)O)[C@@H](O[C@@H]4O[C@H](C(=O)O)[C@@H](O[C@H]5O[C@H](COS(=O)(=O)O)[C@@H](O)[C@H](O)[C@H]5NS(=O)(=O)O)[C@H](O)[C@H]4O)[C@H](OS(=O)(=O)O)[C@H]3NS(=O)(=O)O)[C@H](O)[C@H]2OS(=O)(=O)O)[C@H](O)[C@H]1NS(=O)(=O)O [Fondaparinux sodium],,,17,
CCC1(C(=O)O)OC(OC2C(COS(=O)(=O)O)OC(OC3C(OC)C4OCC3(C(=O)O)OC4OC3C(COS(=O)(=O)O)OC(OC)C(OS(=O)(=O)O)C3OC)C(OS(=O)(=O)O)C2OS(=O)(=O)O)C(OC)C(OC)C1OC1OC(COS(=O)(=O)O)C(OC)C(OC)C1OC (centres unmarked) [Compound PA01],34,,,3.5 ± 0.3
